{
  "source": "the supplement of paper PMC10307832",
  "assay_in_all_cases": "relative viability (nuclei count vs DMSO), 5 days (fraction); higher = more cells survive",
  "key": {"[1]": {"tested_on": "NCI-H2126", "summary_of_the_method": "(§1)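 Relative viability was taken as the ratio of nuclei in treated wells to nuclei in vehicle wells. Lung cancer cell lines in 1536-well plates received compounds by pin tool one day after seeding, either one drug alone or a fixed anchor-drug dose plus five library-drug doses (not always all listed) in √10 steps. Nuclei were counted on 4× images after 5 days of treatment, and values are medians of duplicate plates.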"}, "[2]": {"tested_on": "NCI-H2170", "summary_of_the_method": "as §1"}, "[3]": {"tested_on": "NCI-H2347", "summary_of_the_method": "as §1"}, "[4]": {"tested_on": "NCI-H441", "summary_of_the_method": "as §1"}, "[5]": {"tested_on": "NCI-H460", "summary_of_the_method": "as §1"}, "[6]": {"tested_on": "NCI-H520", "summary_of_the_method": "as §1"}, "[7]": {"tested_on": "NCI-H647", "summary_of_the_method": "as §1"}, "[8]": {"tested_on": "NCI-H727", "summary_of_the_method": "as §1"}, "[9]": {"tested_on": "PC-14", "summary_of_the_method": "as §1"}, "[10]": {"tested_on": "PC-3 [JPC-3]", "summary_of_the_method": "as §1"}, "[11]": {"tested_on": "SK-LU-1", "summary_of_the_method": "as §1"}, "[12]": {"tested_on": "SW 1573", "summary_of_the_method": "as §1"}},
  "data": [
    {"compound": "O=c1[nH]c2ccccc2n1C1CCN(CCCC(c2ccc(F)cc2)c2ccc(F)cc2)CC1", "note": "[Pimozide] + O=C(CCCCCCC(=O)Nc1ccccc1)NO [Vorinostat] (partner 1 µM)", "values": [
      {"measurement": "relative viability", "setting": "[1]; first compound 0.8 µM", "value": 0.782},
      {"measurement": "relative viability", "setting": "[1]; first compound 2.53 µM", "value": 0.785},
      {"measurement": "relative viability", "setting": "[1]; first compound 8 µM", "value": 0.868},
      {"measurement": "relative viability", "setting": "[2]; first compound 0.08 µM", "value": 0.717},
      {"measurement": "relative viability", "setting": "[2]; first compound 0.253 µM", "value": 0.848},
      {"measurement": "relative viability", "setting": "[2]; first compound 0.8 µM", "value": 0.808},
      {"measurement": "relative viability", "setting": "[2]; first compound 2.53 µM", "value": 0.793},
      {"measurement": "relative viability", "setting": "[2]; first compound 8 µM", "value": 0.771},
      {"measurement": "relative viability", "setting": "[3]; first compound 0.08 µM", "value": 0.685},
      {"measurement": "relative viability", "setting": "[3]; first compound 0.253 µM", "value": 0.594},
      {"measurement": "relative viability", "setting": "[3]; first compound 0.8 µM", "value": 0.537},
      {"measurement": "relative viability", "setting": "[3]; first compound 2.53 µM", "value": 0.537},
      {"measurement": "relative viability", "setting": "[3]; first compound 8 µM", "value": 0.492},
      {"measurement": "relative viability", "setting": "[4]; first compound 0.08 µM", "value": 0.699},
      {"measurement": "relative viability", "setting": "[4]; first compound 0.253 µM", "value": 0.657},
      {"measurement": "relative viability", "setting": "[4]; first compound 0.8 µM", "value": 0.74},
      {"measurement": "relative viability", "setting": "[4]; first compound 2.53 µM", "value": 0.857},
      {"measurement": "relative viability", "setting": "[4]; first compound 8 µM", "value": 0.687},
      {"measurement": "relative viability", "setting": "[5]; first compound 0.08 µM", "value": 0.727},
      {"measurement": "relative viability", "setting": "[5]; first compound 0.253 µM", "value": 0.654},
      {"measurement": "relative viability", "setting": "[5]; first compound 0.8 µM", "value": 0.711},
      {"measurement": "relative viability", "setting": "[5]; first compound 2.53 µM", "value": 0.681},
      {"measurement": "relative viability", "setting": "[5]; first compound 8 µM", "value": 0.664},
      {"measurement": "relative viability", "setting": "[6]; first compound 0.08 µM", "value": 0.727},
      {"measurement": "relative viability", "setting": "[6]; first compound 0.253 µM", "value": 0.663},
      {"measurement": "relative viability", "setting": "[6]; first compound 0.8 µM", "value": 0.671},
      {"measurement": "relative viability", "setting": "[6]; first compound 2.53 µM", "value": 0.685},
      {"measurement": "relative viability", "setting": "[6]; first compound 8 µM", "value": 0.65},
      {"measurement": "relative viability", "setting": "[7]; first compound 0.08 µM", "value": 0.5},
      {"measurement": "relative viability", "setting": "[7]; first compound 0.253 µM", "value": 0.577},
      {"measurement": "relative viability", "setting": "[7]; first compound 0.8 µM", "value": 0.621},
      {"measurement": "relative viability", "setting": "[7]; first compound 2.53 µM", "value": 0.268},
      {"measurement": "relative viability", "setting": "[7]; first compound 8 µM", "value": 0.431},
      {"measurement": "relative viability", "setting": "[8]; first compound 0.08 µM", "value": 1.2},
      {"measurement": "relative viability", "setting": "[8]; first compound 0.253 µM", "value": 1.13},
      {"measurement": "relative viability", "setting": "[8]; first compound 0.8 µM", "value": 1.11},
      {"measurement": "relative viability", "setting": "[8]; first compound 2.53 µM", "value": 1.15},
      {"measurement": "relative viability", "setting": "[8]; first compound 8 µM", "value": 1.17},
      {"measurement": "relative viability", "setting": "[9]; first compound 0.253 µM", "value": 0.711},
      {"measurement": "relative viability", "setting": "[9]; first compound 0.8 µM", "value": 0.684},
      {"measurement": "relative viability", "setting": "[9]; first compound 2.53 µM", "value": 0.713},
      {"measurement": "relative viability", "setting": "[9]; first compound 8 µM", "value": 0.701},
      {"measurement": "relative viability", "setting": "[10]; first compound 0.253 µM", "value": 0.763},
      {"measurement": "relative viability", "setting": "[10]; first compound 0.8 µM", "value": 0.716},
      {"measurement": "relative viability", "setting": "[10]; first compound 2.53 µM", "value": 0.882},
      {"measurement": "relative viability", "setting": "[10]; first compound 8 µM", "value": 0.726},
      {"measurement": "relative viability", "setting": "[11]; first compound 0.08 µM", "value": 0.785},
      {"measurement": "relative viability", "setting": "[11]; first compound 0.253 µM", "value": 0.72},
      {"measurement": "relative viability", "setting": "[11]; first compound 0.8 µM", "value": 0.501},
      {"measurement": "relative viability", "setting": "[11]; first compound 2.53 µM", "value": 0.724},
      {"measurement": "relative viability", "setting": "[11]; first compound 8 µM", "value": 0.617},
      {"measurement": "relative viability", "setting": "[12]; first compound 0.08 µM", "value": 0.83},
      {"measurement": "relative viability", "setting": "[12]; first compound 0.253 µM", "value": 0.63},
      {"measurement": "relative viability", "setting": "[12]; first compound 0.8 µM", "value": 0.579},
      {"measurement": "relative viability", "setting": "[12]; first compound 2.53 µM", "value": 0.323},
      {"measurement": "relative viability", "setting": "[12]; first compound 8 µM", "value": 0.33}
    ]}
  ]
}
